Results taken from paper PMC9890698 (BMC Biology, 2023).
“And” between values parts separate entries of the source, which are not always exact repeats. Equal values may be shown once.

Key:
Human P2Y1-R [1] = target: T1, Human P2Y1-R (Homo sapiens, UniProt P47900); experiment: β-arrestin 2 recruitment BRET1 assay (β-arrestin 2-RLuc / P2Y1-R-Venus) in HEK293T cells; format: cell-based; details: for MRS2179-modulated BRET: Figure 3g; for MRS2179-modulated BRET / b-arrestin 2 signaling, Ligand-modulated BRET (% of maximum MRS2179 mean value) / Ligand-modulated BRET: individual replicates; for b-arrestin 2 signaling, Ligand-modulated BRET (% of maximum MRS2179 mean value): Figure 4b; for Ligand-modulated BRET: Figure 3h, ligand 10 µM
T1 construct: expressed in transfected cells; host or cells: HEK293T/17
T1 sequence (P47900 whole entry): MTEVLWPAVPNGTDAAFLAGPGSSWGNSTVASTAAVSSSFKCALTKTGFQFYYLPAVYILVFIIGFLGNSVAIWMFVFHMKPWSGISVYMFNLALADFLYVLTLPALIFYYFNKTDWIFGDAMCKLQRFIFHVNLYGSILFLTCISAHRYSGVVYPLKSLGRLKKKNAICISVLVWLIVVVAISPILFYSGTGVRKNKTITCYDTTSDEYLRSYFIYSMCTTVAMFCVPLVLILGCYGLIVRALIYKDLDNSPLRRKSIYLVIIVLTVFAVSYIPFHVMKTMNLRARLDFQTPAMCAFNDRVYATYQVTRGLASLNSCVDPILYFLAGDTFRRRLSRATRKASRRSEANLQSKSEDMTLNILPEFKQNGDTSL
Source text: (§1) We assessed β-arrestin 2 recruitment to the receptor using BRET^1 assay. The assay measures the interaction between β-arrestin 2 fused to the Renilla reniformis luciferase (RLuc) energy donor and the receptor fused to fluorescent Venus energy acceptor (Fig. 3a). The recruitment of cytosolic β-arrestin 2 to the receptor at the plasma membrane in the presence of an agonist will promote a significant increase of the BRET signal compared to the basal state, reflecting the close proximity between the β-arrestin 2 energy donor and the receptor energy acceptor [22].
Human P2Y1-R (NCBI Reference Sequence: NM_002563.2) and P2Y12-R (NCBI Reference Sequence: NM_022788.3) were fused to double Myc epitope and rat AT1-R (NCBI Reference Sequence: NM_030985.4) to HA tag in N-terminus extracellular region. Alternatively, receptors were also fused to Venus tag in C-terminus intracellular region. Plasmids encoding Gαq-RLuc8, GFP2-Gγ2 and untagged Gβ1 were previously described. ADP was purchased from Sigma-Aldrich/Merck (Darmstadt, Germany). […] The Gq inhibitor (FR900359) was kindly supplied by Evi Kostenis (University of Bonn. Germany).
G protein activation and β-arrestin 2 recruitment were performed as previously described. Briefly, vectors encoding receptors, Gαq-RLuc8, GFP2-Gγ2, Gβ1, or β-arrestin 2 were transiently cotransfected into HEK293T/17 cells as indicated in the figure legends. Forty-eight hours after transfection, cells were washed and resuspended in PBS containing 0.1% (w/v) glucose at room temperature and then distributed (80 μg proteins/well) in a 96-well microplate (PerkinElmer). For G protein activation experiments (BRET^2), cells were incubated in the absence (basal BRET signal) or in the presence of ligand for 1 minute. BRET signal between RLuc8 and GFP2 was measured after addition of the luciferase substrate coelenterazine 400a (5 μM). For β-arrestin 2 recruitment (BRET^1), cells were stimulated with ligands for 5 or 15 min. BRET signal was recorded after incubation with coelenterazine h (5 μM) for 8 min. For kinetics studies, BRET signal between RLuc and Venus was recorded at 20-s intervals at basal state for the 2 first minutes and then for 5 min after ligand injection. For saturation curves (BRET^1), the expression level of Venus- or RLuc-tagged protein was determined by direct measurement of total fluorescence and luminescence respectively. Total fluorescence was first measured with an excitation filter at 485 nm and an emission filter at 520 nm. Then, the same sample was incubated for 8 minutes with 5 μM coelenterazine h and the total luminescence was measured. BRET^2 and BRET^1 readings were collected using a modified Infinite F500 (Tecan Group Ltd). The BRET^2 signal was calculated by the ratio of emission of GFP2 (510–540 nm) to RLuc8 (370–450 nm) and the BRET^1 signal by the ratio of emission of Venus (520–570 nm) to RLuc (370–480 nm). Sometimes, results are expressed as the Net BRET computed by deducting the BRET background signal (obtained in the presence of the energy donor alone) from the BRET signal (acquired from cells expressing both the energy donor and acceptor).

Human P2Y1-R [2] = target: T1, Human P2Y1-R; experiment: IP1 accumulation assay (HTRF) in HEK293T cells expressing P2Y1-R; format: cell-based; details: MRS2179 10 μM, 2 h; for Effect on IP1 production: ADP 100 μM, Gq inhibitor 100 nM, result in words
Source text: Since Gαq protein activation is known to induce PLC activation leading to IP3 and subsequent cytosolic calcium release, we analyzed the constitutive Gαq-dependent P2Y1-R signaling by quantifying intracellular inositol monophosphate (IP1) using a monoclonal antibody-based competitive ELISA. IP1 is a downstream metabolite of IP3 that accumulates in cells following Gαq protein-coupled receptor activation, making it an ideal readout for Gαq protein-dependent signaling pathways.

[3] = test system: washed murine platelets (P2Y1-R/Gαq signaling); experiment: IP1 accumulation assay (HTRF) in washed murine platelets; format: cell-based, mouse; details: MRS2179 10 μM, 2 h; for Effect on IP1 levels: washed murine platelets, ADP 100 μM, Gq inhibitor 100 nM, apyrase 0.02 U/mL, result in words
Procedure: As performed in HEK293T cells, we thus quantified intracellular IP1 levels to monitor Gαq protein-dependent signaling pathways.
Platelet-rich plasma (PRP) was obtained by mixing blood with 1 volume of modified Hepes Tyrode’s buffer (137 mM NaCl, 2 mM KCl, 12 mM NaHCO3, 0.3 mM NaH2PO4, 1 mM MgCl2, 2 mM CaCl2, 5.5 mM glucose, 5 mM HEPES, and 0.35% (w/v) BSA, pH 6.7) followed by a centrifugation at 150 g for 2 min at 37 °C. Then, platelets were pelleted by centrifugation at 1000 g for 4 min, resuspended in modified Hepes Tyrode’s buffer (pH 7.4), adjusted to 3.10^8 platelets/mL in the presence of 0.02 U/mL of apyrase and 10 μM indomethacin and rested for 45 minutes at 37°C before platelet stimulation. PGI2 (0.5 μM) was added before centrifugation steps to avoid platelet activation.
Quantification of intracellular IP1 was performed using the HTRF (Homogeneous Time Resolved Fluorescence) IP1 competitive immunoassay (IP-One Tb kit. Cisbio. France) according to the manufacturer’s instructions. Briefly, 20,000 HEK293T/17 cells or 3.10^6 platelets were distributed in a 384-well white microplate (Greiner) and incubated with the indicated molecules for 30 min or 2 h at 37 °C in the presence of 50 mM of LiCl to prevent IP1 degradation. After addition of d2-labeled IP1 (acceptor) and anti-IP1-Cryptate (donor) for 1 h, the specific FRET signals were calculated by the fluorescence ratio of the acceptor and donor emission signal (665/620 nm) collected using a modified Infinite F500 (Tecan Group Ltd). Conversion of the HTRF ratio of each sample into IP1 concentrations was performed on the basis of a standard curve to determine the linear dynamic range of the assay.

Human P2Y12-R = target: T2, Human P2Y12-R (Homo sapiens, UniProt Q9H244); experiment: β-arrestin 2 recruitment BRET1 assay (β-arrestin 2-RLuc / P2Y12-R-Venus) in HEK293T cells; format: cell-based; details: 10 μM, 5 min, result in words
T2 construct: expressed in transfected cells; host or cells: HEK293T/17
T2 sequence (Q9H244 whole entry): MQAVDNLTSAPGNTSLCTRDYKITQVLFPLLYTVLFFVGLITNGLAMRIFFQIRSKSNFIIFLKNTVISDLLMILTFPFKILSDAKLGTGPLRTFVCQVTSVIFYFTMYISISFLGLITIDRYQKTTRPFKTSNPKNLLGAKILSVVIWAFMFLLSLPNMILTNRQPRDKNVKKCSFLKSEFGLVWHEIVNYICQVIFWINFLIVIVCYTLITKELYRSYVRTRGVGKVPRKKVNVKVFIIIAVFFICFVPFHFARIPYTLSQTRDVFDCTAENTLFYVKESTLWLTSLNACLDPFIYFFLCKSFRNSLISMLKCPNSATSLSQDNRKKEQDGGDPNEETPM
Source text: as §1, with “[22]. […]” for “[22].”
G protein activation and β-arrestin 2 recruitment were performed as previously described. […] BRET signal between RLuc8 and GFP2 was measured after addition of the luciferase substrate coelenterazine 400a (5 μM). […] BRET signal was recorded after incubation with coelenterazine h (5 μM) for 8 min. For kinetics studies, BRET signal between RLuc and Venus was recorded at 20-s intervals at basal state for the 2 first minutes and then for 5 min after ligand injection. For saturation curves (BRET^1), the expression level of Venus- or RLuc-tagged protein was determined by direct measurement of total fluorescence and luminescence respectively. Total fluorescence was first measured with an excitation filter at 485 nm and an emission filter at 520 nm. […] BRET^2 and BRET^1 readings were collected using a modified Infinite F500 (Tecan Group Ltd). […]

[4] = Fig. 3g, inverse agonism on β-arrestin 2 recruitment, 15 min
[5] = β-Arrestin 2 signaling, Fig. 4b, 15 min

CNc1ncnc2c1ncn2[C@H]1C[C@H](OP(=O)(O)O)[C@@H](COP(=O)(O)O)O1 [MRS2179]
Effect on β-arrestin 2 recruitment at decreased (low) P2Y1-R expression (Human P2Y1-R [1]; 10 μM, 15 min, decreasing amounts of P2Y1-R-Venus vector, result in words): loss of the inverse agonist efficacy | Maximal efficacy (Emax), MRS2179-modulated BRET (Human P2Y1-R [1]; Fig. 3g, 15 min stimulation, difference in BRET signal with and without ligand): -0.1192 ± 0.007029 | EC50 (Human P2Y1-R [1]; [4]): 4.56 µM | pEC50 ± s.e.m. (Human P2Y1-R [1]; [4]): 5.341 ± 0.1565 | MRS2179-modulated BRET (Human P2Y1-R [1]; [MRS2179] 1.00E-04 M): -0.1343 and -0.1251 and -0.1075 and -0.1104 and -0.1004 and -0.1271 | MRS2179-modulated BRET (Human P2Y1-R [1]; [MRS2179] 1.00E-05 M): -0.08399 and -0.08788 and -0.08039 and -0.09033 and -0.07645 and -0.09139 | MRS2179-modulated BRET (Human P2Y1-R [1]; [MRS2179] 1.00E-06 M): -0.02625 and -0.04054 and -0.04836 and -0.05476 and -0.05132 and -0.07031 | MRS2179-modulated BRET (Human P2Y1-R [1]; [MRS2179] 1.00E-07 M): -0.0171 and -0.02456 and -0.02615 and -0.04428 and -0.0209 and -0.07223 | MRS2179-modulated BRET (Human P2Y1-R [1]; [MRS2179] 1.00E-08 M): -0.003323 and -0.0198 and -0.01307 and -0.01788 and -0.04276 and -0.0269 | MRS2179-modulated BRET (Human P2Y1-R [1]; [MRS2179] 1.00E-09 M): -0.00593 and -0.03381 and -0.01728 and -0.01928 and -0.03943 and -0.05623 | MRS2179-modulated BRET (Human P2Y1-R [1]; [MRS2179] 1.00E-10 M): -0.003915 and -0.01627 and -0.01217 and -0.01765 and -0.03594 and -0.03393 | b-arrestin 2 signaling, Ligand-modulated BRET (% of maximum MRS2179 mean value) (Human P2Y1-R [1]; [Ligand] 1.00E-04 M): -103.593 % of maximum MRS2179 mean value and -98.5011 % of maximum MRS2179 mean value and -96.2574 % of maximum MRS2179 mean value and -88.0215 % of maximum MRS2179 mean value and -113.627 % of maximum MRS2179 mean value | b-arrestin 2 signaling, Ligand-modulated BRET (% of maximum MRS2179 mean value) (Human P2Y1-R [1]; [Ligand] 1.00E-05 M): -60.9526 % of maximum MRS2179 mean value and -65.9951 % of maximum MRS2179 mean value and -71.6134 % of maximum MRS2179 mean value and -73.8216 % of maximum MRS2179 mean value and -88.9449 % of maximum MRS2179 mean value | b-arrestin 2 signaling, Ligand-modulated BRET (% of maximum MRS2179 mean value) (Human P2Y1-R [1]; [Ligand] 1.00E-06 M): -20.802 % of maximum MRS2179 mean value and -20.2455 % of maximum MRS2179 mean value and -36.1127 % of maximum MRS2179 mean value and -36.3804 % of maximum MRS2179 mean value and -49.6506 % of maximum MRS2179 mean value | b-arrestin 2 signaling, Ligand-modulated BRET (% of maximum MRS2179 mean value) (Human P2Y1-R [1]; [Ligand] 1.00E-07 M): -19.7613 % of maximum MRS2179 mean value and -27.0869 % of maximum MRS2179 mean value and -32.4514 % of maximum MRS2179 mean value and -43.962 % of maximum MRS2179 mean value and -16.0925 % of maximum MRS2179 mean value | b-arrestin 2 signaling, Ligand-modulated BRET (% of maximum MRS2179 mean value) (Human P2Y1-R [1]; [Ligand] 1.00E-08 M): -3.302 % of maximum MRS2179 mean value and 12.7459 % of maximum MRS2179 mean value and -20.5003 % of maximum MRS2179 mean value and -35.6867 % of maximum MRS2179 mean value and -12.0698 % of maximum MRS2179 mean value | b-arrestin 2 signaling, Ligand-modulated BRET (% of maximum MRS2179 mean value) (Human P2Y1-R [1]; [Ligand] 1.00E-09 M): -20.2543 % of maximum MRS2179 mean value and -2.0253 % of maximum MRS2179 mean value and -34.1131 % of maximum MRS2179 mean value and -19.5954 % of maximum MRS2179 mean value and -10.4994 % of maximum MRS2179 mean value | b-arrestin 2 signaling, Ligand-modulated BRET (% of maximum MRS2179 mean value) (Human P2Y1-R [1]; [Ligand] 1.00E-10 M): -0.05365 % of maximum MRS2179 mean value and -19.3587 % of maximum MRS2179 mean value and -11.2009 % of maximum MRS2179 mean value and -4.28 % of maximum MRS2179 mean value and -21.5173 % of maximum MRS2179 mean value | Ligand-modulated BRET (Human P2Y1-R [1]; 0.1µg P2Y1-R plasmid): -0.007776 and -0.009026 and 0.006633 and -0.01036 and -0.001083 | Ligand-modulated BRET (Human P2Y1-R [1]; 1µg P2Y1-R plasmid): -0.04239 and -0.06101 and -0.06001 and -0.03815 and -0.06277 | Ligand-modulated BRET (Human P2Y1-R [1]; 4µg P2Y1-R plasmid): -0.06559 and -0.09192 and -0.04789 and -0.08727 and -0.06156 | Effect on β-arrestin 2 recruitment / BRET signal between P2Y1-R-Venus and β-arrestin 2-RLuc (Human P2Y1-R [1]; HEK293T cells, high P2Y1-R expression, result in words): significantly decreased the BRET signal | EC50 (Human P2Y1-R [1]; [5]): 5.05 µM | pEC50 ± s.e.m. (Human P2Y1-R [1]; [5]): 5.296 ± 0.153 | Effect on IP1 production (Human P2Y1-R [2]): strongly inhibited | IP1 concentration (Human P2Y1-R [2]; P2Y1-R): 323.411 nM and 417.936 nM and 377.702 nM and 245.513 nM and 385.824 nM | IP1 concentration (% matched basal values) ([3]; murine platelets, individual mice): 42.6495 % matched basal values and 45.455 % matched basal values and 38.903 % matched basal values and 51.5072 % matched basal values and 54.7749 % matched basal values and 40.3524 % matched basal values and 43.9466 % matched basal values and 64.234 % matched basal values and 61.4369 % matched basal values and 43.9485 % matched basal values and 57.6391 % matched basal values and 59.347 % matched basal values and 42.2435 % matched basal values | Effect on IP1 levels [3]: decreased IP1 levels

Nc1ncnc2c1ncn2[C@@H]1O[C@H](COP(=O)(O)OP(=O)(O)O)[C@@H](O)[C@H]1O [ADP, adenosine diphosphate]
Effect on β-arrestin 2 recruitment (Human P2Y12-R): did not trigger β-arrestin 2 recruitment | Effect on IP1 production (Human P2Y1-R [2]): slightly but significantly potentiated | Effect on IP1 levels [3]: significantly increased
